Source: paper PMC8152782, “Synthesis and evaluation of bis(imino)anthracene derivatives as G-quadruplex ligands” (RSC Medicinal Chemistry, 2021)
Like-named read-outs stand apart in the source and are kept apart here.

How the values were obtained:
[1] = test system: HeLa cells; assay: Presto blue cell viability assay, HeLa cells; format: cell-based, Human; conditions: 24 hour incubation, n = 3
Protocol: Fig. 3 Cell culture, presto blue assay results for 2a, 2b, 2c, 2d, 2e. The data shown is after 24 hour incubation of drug treated HeLa cells. Top chart illustrates mean and SEM of HeLa cell viability at concentrations 100 to 1 μM with positive control (doxorubicin (N2)). In the top charts, values are normalized to negative control (DMSO) at a value of 1 (cell viability). The bottom charts then show the normalized absorbance percentage to the negative control (percentage cell viability) of log inhibitor concentration (multiplied by 10 to account for 1 μM concentration) IC50 values and R squared values are included in the chart. Error bars indicates standard error of mean from n = 3 experiments.
Compounds 2a–2e were subsequently tested against a HeLa cancer cell line (HeLa, American Type Culture Collection (ATCC) (ATCC® CCL-2™)) and they were all prepared in 100, 30, 10 and 1 μM concentrations so that IC50 values could be calculated to establish whether drugs were cytotoxic to HeLa cells (see ESI ^† S1).
Cell suspension (200μl) containing 5000 healthy HeLa cells was seeded in 96-well plates (BDFalcon, Franklin Lakes, NJ) and allowed to attach and stabilize overnight at 37 °C with 5%
CO2. Aspiration of media and rinsing solution was done through pipetting off liquid. Cell viability was then tested with PrestoBlue assay.The presto blue assay was carried out in light sensitive conditions. 100μl of PrestoBlue solution (10% in medium) was added to each well and the plates were incubated at 37 °C for 1 hour. After incubation time, the change in florescence was measured at 570/600 nm using a Spectra Max fluorescence multi-well plate reader.
Dissociation constants were calculated using the curve-fitting software Graphpad Prism 8.
Incubation was done using Thermofisher Steri-Cycle CO2 Incubators and for plate reading Thermofisher Epoch Microplate Spectrophotometer was used. Centrifugation was done by Thermo Scientific Sorvall ST 40 Centrifuge Series.
Commercially available DMEM (Dulbecco’s Modified Eagle Medium- low glucose), including sodium pyruvate and […], 500 mL, was obtained from Gibco, USA. All procedures carried out under sterile conditions, 94 mL of media was taken and the required volume of supplements (10 % Fetal Bovine Serum (FBS), 2 mM/mL Glutamine, 100 U/mL penicillin and 100 µg/mL streptomycin.) were added.
Cell Line and Cell Culture Conditions
Human cervical cancer cell lines (HeLa) were obtained from the American Type Culture Collection (ATCC) (ATCC® CCL-2™). HeLa cells were cultured in Dulbecco’s Eagle Modified Medium low glucose (DMEM) containing 10 % Fetal Bovine Serum (FBS), 2 mM/mL Glutamine, 100 U/mL penicillin and 100 µg/mL streptomycin.
%viable cells = 1 ‒ Number of blue cells x 100 […]
Cryovials were taken from the liquid nitrogen tank and thawed quickly at 37 °C. After that, the cell suspension was transferred to a 15 mL tube and 5 mL of the medium was added into the cell suspension drop by drop with gentle shaking. Centrifugation was done at 1500rpm for 5 min and then supernatant was discarded. After the pellet was resuspended with medium, they were seeded to T-25 flasks. Subsequent to 12 hours incubation, the media was removed and washed with DPBS (1X) (pH:7.4) containing 10 mM sodium dibasic phosphate, 2.7 mM KCI, 2 mM Potassium phosphate,137 mM NaCI. Fresh media was added to the cell monolayer a […]
Assays were carried out using a 96 well plate. This 96-well plate contains one blank, 3 controls which contains cells including a negative control with media, one vehicle control which is DMSO and medium solutions, and a positive control of Doxorubicin (200µL) and media. Drugs were prepared in 100, 30, 10, 1 µM concentrations to make 8 seeded well plates in total which were done in triplicate. All drugs were prepared in DMSO and then diluted in media to give 5µL of DMSO max in 100µM treatments which is controlled by vehicle with a DMSO volume

[2] = test system: d(TTGGGTT)4; assay: NMR titration of ligands with G-quadruplex oligonucleotide; format: binding; conditions: for Difference from 11.55 ppm (ppm) G3NH: 1H NMR chemical shift difference of G-quadruplex peak G3NH on ligand addition; for Difference from 11.22 ppm (ppm) G4NH: 1H NMR chemical shift difference of G-quadruplex peak G4NH on ligand addition; for Difference from 10.86 ppm (ppm) G5NH: 1H NMR chemical shift difference of G-quadruplex peak G5NH on ligand addition; for Difference from 1.58 ppm (ppm) T6CH3: 1H NMR chemical shift difference of G-quadruplex peak T6CH3 on ligand addition; for Difference from 7.23 ppm (ppm) T6H6/8: 1H NMR chemical shift difference of G-quadruplex peak T6H6/8 on ligand addition; for Δδ (ppm): G quadruplex chemical shift difference
Protocol: Compounds 2a–2e were evaluated for G-quadruplex interaction using NMR titration studies with d(TTGGGTT)4 with intercalation comparisons made against doxorubicin and nemorubicin (see ESI ^† S1). […] We also see the peaks for T6 (methyl, aromatic and ribose) shifting to a lower field in accord with the up-field shift of the G5 peaks. This change is explained by the formation of a complex between the ligand and the tetrad formed at G5, which pushes the T6 unit away from the guanine π-system. This intercalation framework agreed with ESI/MS carried out which illustrated a 1 : 1 complex.[17]
Maximum line broadening occurs at a ratio of 1 : 1 drug to G-quadruplex and chemical shift difference changing up to 1 : 1 with the bound and unbound peaks being present. […]
This oligonucleotide solvent mix was then micro-pipetted at a volume of 0.6ml into NMR tubes. Stock solutions of drug compounds in DMSO-d6 were used to make up the molar ratios of 0.125:1, 0.25:1, 0.5:1 and 1:1 drug to oligomer.
A non-active drug (TC102) and DMSO on its own were added as controls to validate that the effects on the spectra were from cytotoxic elements of the drug compounds rather than the effects from DMSO or addition of compound, which could change environment, pH or shimming of NMR instrument.
Spectra were acquired at 300 K using a Bruker Avance III 600MHz FT‐NMR. The WATERNOESY parameter set which executes the pulse sequence noesygppr1d (Bruker, size […]
experiments with a pre-saturation delay during relaxation and mixing time (experiment time:
14 min 44 sec). With this pulse sequence, all non-exchangeable protons are detected in the deuterated D2O/H2O buffer solution. T1 relaxation experiments were acquired for d1 calibration with a modified version of the zggpw5 pulse sequence. With a saturation recovery […]
pulse and using water suppression (Bruker, size of fid 65536/11 F2/F1, […]
(experimental time 1 h 4 min 6 sec).
Bruker Topspin 3.5 pl7 was used for assignment of peaks, manual phasing, baseline correction and manual integration. Manual integration was done to ensure bias and slope was correct and that the integrals were all of the same width. Calculation of chemical shift change done through built in top spin distance measurements between peaks.

[3] = test system: d(TTGGGTT)4; set-up: method as in PMID 26922833; conditions: G quadruplex chemical shift difference; cited from earlier work

Compound | IC50 ([1]; Homo sapiens, HeLa, 24 h) [µM] | Difference from 11.55 ppm (ppm) G3NH [2] [ppm] | Difference from 11.22 ppm (ppm) G4NH [2] [ppm] | Difference from 10.86 ppm (ppm) G5NH [2] [ppm] | Difference from 1.58 ppm (ppm) T6CH3 [2] [ppm] | Difference from 7.23 ppm (ppm) T6H6/8 [2] [ppm] | Δδ (ppm) [2] [ppm] | IC50 [1] [µM] | Δδ (ppm) [3] [ppm]
C(=N\Cc1ccc2c(c1)OCO2)/c1c2ccccc2c(/C=N/Cc2ccc3c(c2)OCO3)c2ccccc12 [Compound 2a] | 18.1 | −0.04 | −0.08 | −0.2 | 0.09 | 0.17 | 0.2 | – | –
C(=N\CCCN1CCOCC1)/c1c2ccccc2c(/C=N/CCCN2CCOCC2)c2ccccc12 [Compound 2b] | 24.4 | −0.066 | −0.135 | −0.34 | 0.093 | 0.22 | 0.34 | – | –
C(=N\CCc1c[nH]c2ccccc12)/c1c2ccccc2c(/C=N/CCc2c[nH]c3ccccc23)c2ccccc12 [Compound 2c] | 30.5 | −0.06 | −0.115 | −0.25 | 0.157 | 0.126 | 0.25 | 30.6 | –
C(=N\CCN1CCCCC1)/c1c2ccccc2c(/C=N/CCN2CCCCC2)c2ccccc12 [Compound 2d] | 24 | −0.03 | −0.07 | −0.13 | 0.094 | 0.16 | 0.13 | 23.8 | –
Cc1cnc(/N=C/c2c3ccccc3c(/C=N/c3ncc(C)s3)c3ccccc23)s1 [Compound 2e] | 20.5 | −0.056 | −0.11 | −0.24 | 0.146 | 0.19 | 0.24 | – | –
COc1cccc2c1C(=O)c1c(O)c3c(c(O)c1C2=O)C[C@@](O)(C(=O)CO)C[C@@H]3O[C@H]1C[C@H](N)[C@H](O)[C@H](C)O1 [Doxorubicin] | – | – | – | – | – | – | – | – | 0.31
COc1cccc2c1C(=O)c1c(O)c3c(c(O)c1C2=O)C[C@@](O)(C(=O)CO)C[C@@H]3O[C@H]1C[C@H](N2CCO[C@H](OC)C2)[C@H](O)[C@H](C)O1 [Nemorubicin] | – | – | – | – | – | – | – | – | 0.31
